One data set concerns PARs. Description: Inhibition of platelet aggregation induced by PARs (thrombin-triggered, turbidimetric). Type of data set: cell-based. The procedure:
A suitable in vitro inhibition assay can be used to preliminarily evaluate a fused pyrazolyl compound's ability to inhibit cell activation induced by PARs, which are pre-activated by thrombin. For example, a platelet suspension in Tyrode's solution can be prepared and incubated with a compound to be tested, thrombin added to trigger platelet aggregation, and the aggregation measured turbidimetrically with a light-transmission aggremometer. In vivo screening can be performed by following procedures well known in the art.
In vitro inhibitory activity of the fused pyrazolyl compounds was preliminarily evaluated by the following method: A platelet suspension in a Tyrode's solution was prepared according to a procedure described by Wu et al., Br. J Pharm., 1995, 116: 1973-1978. The Tyrode's solution had the following composition (mM): NaCl (136.8), KCl (2.8), NaHCO3 (11.9), MgCl2 (1.1), NaH2PO4 (0.33), CaCl2 (1.0), and glucose (11.2). The platelet number in the platelet suspension was adjusted to 4.5×10^8 platelets/mL with the aid of a Coulter Counter (Model ZM). […] Platelet aggregation was measured turbidimetrically with a light-transmission aggremometer. The extent of platelet aggregation was determined at 5 minutes after the addition of thrombin. The percentage of aggregation was calculated by the method described in Teng et al., Biochem. Biophys. […]

For data set [1], the system named is platelet activating factors other than PARs. Description: Effect on platelet activating factors other than PARs. It is filed as cell-based. To be noted: selectivity versus other platelet activators.

This note sets out measurements from US20020004518A1, “Method of treating disorders related to protease-activated receptors-induced cell activation” (priority 2000, published 2002).

As for `CCN(CC)Cc1ccc(-c2nn(Cc3ccccc3)c3ccccc23)o1` [Example 17, 1-benzyl-3-(5′-diethylaminomethyl-2′-furyl)indazole], the “inhibitory activity on platelet aggregation” value in the data set with PARs (platelet suspension in Tyrode's solution, 3 min preincubation at 37° C., thrombin added, aggregation read at 5 minutes) was “much higher activity”.

Regarding `CCOC(=O)c1cccc(-c2nn(Cc3ccccc3)c3ccccc23)c1` [Example 19, 1-benzyl-3-(3′-ethoxycarbonylphenyl)indazole], the melting point lay in the range of 85 to 86 °C. Besides, the “activity relative to several other tested compounds, e.g. 1-benzyl-3-(4′-ethoxycarbonyl)phenyl-indazole” value in the data set on PARs (thrombin-induced platelet aggregation, fold versus other tested compounds) is “at least 10 times”. The “effect on platelet activating factors other than PARs” value in data set [1] is on record as “little or no effect”.

Consider `O=C(O)c1ccc(-c2nn(Cc3ccccc3)c3ccccc23)cc1` [Example 20, 1-benzyl-3-(4′-hydroxycarbonylphenyl)indazole], for which the melting point is 205 to 207 °C. On the same count and under the same terms, then `O=C(O)c1cccc(-c2nn(Cc3ccccc3)c3ccccc23)c1` [Example 21, 1-benzyl-3-(3′-hydroxycarbonylphenyl)indazole], with 190 to 192 °C; and `OCc1ccc(-c2nn(Cc3ccccc3)c3ccccc23)cc1` [Example 22, 1-benzyl-3-(4′-hydroxymethylphenyl)indazole], with 110 to 112 °C.

In general, melting point refers to the temperature of the solid-liquid transition.
